The results in this text go back to patent publication US20070219183A1, “Dihydropyrazolo[1,5-A]pyrimidine and dihydroimidazo[1,5-A]pyrimidine derivatives and methods of use thereof” (Wyeth, priority 2006, published 2007).

T1 sequence (P15056 whole entry): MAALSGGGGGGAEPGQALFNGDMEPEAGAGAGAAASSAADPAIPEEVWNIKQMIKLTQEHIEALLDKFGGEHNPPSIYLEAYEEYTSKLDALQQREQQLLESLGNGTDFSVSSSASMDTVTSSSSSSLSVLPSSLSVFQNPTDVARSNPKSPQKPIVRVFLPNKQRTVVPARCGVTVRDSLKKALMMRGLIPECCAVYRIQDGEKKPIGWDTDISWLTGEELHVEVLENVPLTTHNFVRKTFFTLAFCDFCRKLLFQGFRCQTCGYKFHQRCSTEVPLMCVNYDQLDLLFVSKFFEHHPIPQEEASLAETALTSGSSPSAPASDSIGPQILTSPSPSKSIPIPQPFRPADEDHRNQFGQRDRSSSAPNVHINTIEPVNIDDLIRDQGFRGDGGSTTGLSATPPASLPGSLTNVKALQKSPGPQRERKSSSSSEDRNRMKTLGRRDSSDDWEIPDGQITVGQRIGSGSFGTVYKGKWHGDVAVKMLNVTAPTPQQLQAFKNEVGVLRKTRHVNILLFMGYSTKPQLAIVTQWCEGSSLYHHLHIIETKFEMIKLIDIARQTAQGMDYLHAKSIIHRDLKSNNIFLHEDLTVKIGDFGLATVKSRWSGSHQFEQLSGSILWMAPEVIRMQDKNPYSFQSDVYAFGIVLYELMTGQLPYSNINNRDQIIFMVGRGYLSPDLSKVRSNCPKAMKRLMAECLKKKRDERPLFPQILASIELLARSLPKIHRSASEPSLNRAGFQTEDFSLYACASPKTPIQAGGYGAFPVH

The assay concerns the target T1, Flag/GST-tagged recombinant human B-Raf (Homo sapiens, UniProt P15056).
T1 construct: Flag; GST; made in house; host or cells: Sf9 insect cells (B-Raf); E. coli (Mek-1-GST)
The experiment in a line: B-Raf Kinase to MEK1 ELISA. The format is biochemical. The settings on record: phosphorylation of GST-MEK1 (50 nM final), phospho-MEK1 antibody/Europium readout; 60 minutes at RT. From the text: • TITLE: B-Raf Kinase to MEK1 ELISA • PURPOSE: To discover B-Raf Kinase inhibitors that can inhibit growth of tumor cells which contain oncogenic forms of Receptor Tyrosine Kinases or K-Ras, or B-Raf kinase.
Reagents: Flag/GST-tagged recombinant human B-Raf produced in Sf9 insect cells, human non-active Mek-1-GST (recombinant protein produced in E. coli); and a phospho-MEK1 specific poly-clonal Ab from Cell Signaling Technology (cat. #9121).
B-Raf-1 is used to phosphorylate GST-MEK1. MEK1 phosphorylation is measured by a phospho-specific antibody (from Cell Signaling Technology, cat. #9121) that detects phosphorylation of two serine residues at positions 217 and 221 on MEK1.
1. Assay Dilution Buffer (ADB): 20 mM MOPS, pH 7.2, 25 mM β-glycerol phosphate, 5 mM EGTA, 1 mM sodium orthovanadate, 1 mM dithiothreitol.
2. Magnesium/ATP Cocktail: 200 μM cold ATP and 40 mM magnesium chloride in ADB.
4. Active Kinase: Active B-Raf: used at ˜20 ng per assay point.
5. Non-active GST-MEK1: Use at 100 nM (50 nM final).
7. Anti-GST Ab (Pharmacia)
8. Anti-rabbit Ab/Europium conjugate (Wallac)
1. Add 25 μl of ADB containing B-Raf and Mek per assay (i.e. per well of a 96 well plate)
2. Add 25 μl of 0.2 mM ATP and 40 mM magnesium chloride in ADB.
3. Incubate for 60 minutes at RT in a shaking incubator.
4. Transfer this mixture to an anti-GST Ab coated 96 well plate (Nunc Immunosorb plates coated o/n with a-GST.
5. Incubate for 60 minutes at 30° C. in a shaking incubator
6. Wash 3× with TBST, add Anti-Phospho MEK1 (1:1000)
7. Incubate for 60 minutes at 30° C. in a shaking incubator
8. Wash 3× with TBST, add Anti-rabbit Ab/Europium conjugate (Wallac) (1:500)
9. Incubate for 60 minutes at 30° C. in a shaking incubator
10. Add 100 ul of Wallac Delfia Enhancement Solution and shake for 10 minutes.
11. Read plates in Wallac Victor model Plate Reader.
12. Collect data analyze in Excel for single point and IC50 determinations.
• Single point assay—% inhibition at […] (% Inhibition=1−cpd.treated sample/untreated control) • IC50 determinations—done on cpds from single pt assays with >80% inhibition. Typically Raf-1 assay is run at cpd concentrations from 10 μM to 30 nM in half log dilutions. (% inhibition is determined for each cpd concentration) • Data handling—Data is analyzed in Excel, and will transferred to Radis.
Background: In an ELISA, binding on a coated surface is turned into a signal by an enzyme label.
On to `CCOC(=O)c1cnn2c1NCC=C2c1cccc(NC(=O)c2cccc(C(F)(F)F)c2)c1` [Example 8, Ethyl 7-(3-{[3-(trifluoromethyl)benzoyl]amino}phenyl)-4,5-dihydropyrazolo[1,5-a]pyrimidine-3-carboxylate], for which the IC50 stood at 278 nM.
Take `O=C(Nc1cccc(C2=CCNc3ccnn32)c1)c1cccc(C(F)(F)F)c1` [Example 1, N-[3-(4,5-dihydropyrazolo[1,5-a]pyrimidin-7-yl)phenyl]-3-(trifluoromethyl)benzamide]: the IC50 is above 10000 nM.
Under `CC(C)(C)OC(=O)N1CC=C(c2cccc(NC(=O)c3cccc(C(F)(F)F)c3)c2)n2nccc21` [Example 6, tert-Butyl 7-(3-{[3-(trifluoromethyl)benzoyl]amino}phenyl)pyrazolo[1,5-a]pyrimidine-4(5H)-carboxylate] stands 815 nM.
In the case of `CC(C)(C)OC(=O)NCCC(=O)N1CC=C(c2cccc(NC(=O)c3cccc(C(F)(F)F)c3)c2)n2nccc21` [Example 17, tert-Butyl {3-oxo-3-[7-(3-{[3-(trifluoromethyl)benzoyl]amino}phenyl)pyrazolo[1,5-a]pyrimidin-4(5H)-yl]propyl}carbamate], the IC50 amounted to 385 nM.
Consider `NCC(=O)N1CC=C(c2cccc(NC(=O)c3cccc(C(F)(F)F)c3)c2)n2nccc21` [Example 15, N-[3-(4-Glycyl-4,5-dihydropyrazolo[1,5-a]pyrimidin-7-yl)phenyl]-3-(trifluoromethyl)benzamide], for which the IC50 is above 10000 nM.
As for `CC(=O)N1CC=C(c2cccc(NC(=O)c3cccc(C(F)(F)F)c3)c2)n2nccc21` [Example 10, N-[3-(4-Acetyl-4,5-dihydropyrazolo[1,5-a]pyrimidin-7-yl)phenyl]-3-(trifluoromethyl)benzamide], the IC50 came to 3770 nM.
For `CCOC(=O)N1CC=C(c2cccc(NC(=O)c3cccc(C(F)(F)F)c3)c2)n2nccc21` [Example 4, Ethyl 7-(3-{[3-(trifluoromethyl)benzoyl]amino}phenyl)pyrazolo[1,5-a]pyrimidine-4(5H)-carboxylate], the IC50 was 370 nM.
For `CS(=O)(=O)N1CC=C(c2cccc(NC(=O)c3cccc(C(F)(F)F)c3)c2)n2nccc21` [Example 2, N-{3-[4-(Methylsulfonyl)-4,5-dihydropyrazolo[1,5-a]pyrimidin-7-yl]phenyl}-3-(trifluoromethyl)benzamide], the IC50 was determined as 683 nM.
On to `CCOC(=O)c1cnn2c1N(C(=O)OC)CC=C2c1cccc(NC(=O)c2cccc(C(F)(F)F)c2)c1` [Example 13, 3-Ethyl 4-methyl 7-(3-{[3-(trifluoromethyl)benzoyl]amino}phenyl)pyrazolo[1,5-a]pyrimidine-3,4(5H)-dicarboxylate], for which the IC50 amounted to 126 nM.
In the case of `CC(=O)NCC(=O)N1CC=C(c2cccc(NC(=O)c3cccc(C(F)(F)F)c3)c2)n2nccc21` [Example 16, N-{3-[4-(N-Acetylglycyl)-4,5-dihydropyrazolo[1,5-a]pyrimidin-7-yl]phenyl}-3-(trifluoromethyl)benzamide] it was 1770 nM; in that of `CCOC(=O)c1cnn2c1N(C(C)=O)CC=C2c1cccc(NC(=O)c2cccc(C(F)(F)F)c2)c1` [Example 11, Ethyl 4-acetyl-7-(3-{[3-(trifluoromethyl)benzoyl]amino}phenyl)-4,5-dihydropyrazolo[1,5-a]pyrimidine-3-carboxylate], 572 nM; in that of `CC(C)(C)OC(=O)NCC(=O)N1CC=C(c2cccc(NC(=O)c3cccc(C(F)(F)F)c3)c2)n2nccc21` [Example 14, tert-Butyl {2-oxo-2-[7-(3-{[3-(trifluoromethyl)benzoyl]amino}phenyl)pyrazolo[1,5-a]pyrimidin-4(5H)-yl]ethyl}carbamate], above 10000 nM.
Regarding `O=C(Nc1ccc(Cl)c(C2=CCNc3ccnn32)c1)c1cccc(C(F)(F)F)c1` [Example 20, N-[4-Chloro-3-(4,5-dihydropyrazolo[1,5-a]pyrimidin-7-yl)phenyl]-3-(trifluoromethyl)benzamide], the IC50 stood at 161 nM.
`CC(C)NC(=O)N1CC=C(c2cccc(NC(=O)c3cccc(C(F)(F)F)c3)c2)n2nccc21` [Example 5, N-isopropyl-7-(3-{[3-(trifluoromethyl)benzoyl]amino}phenyl)pyrazolo[1,5-a]pyrimidine-4(5H)-carboxamide]: the IC50 was determined as 1620 nM.
Turning to `NCCC(=O)N1CC=C(c2cccc(NC(=O)c3cccc(C(F)(F)F)c3)c2)n2nccc21` [Example 18, N-[3-(4-β-Alanyl-4,5-dihydropyrazolo[1,5-a]pyrimidin-7-yl)phenyl]-3-(trifluoromethyl)benzamide], the IC50 is above 10000 nM.
Regarding `COC(=O)N1CC=C(c2cccc(NC(=O)c3cccc(C(F)(F)F)c3)c2)n2nccc21` [Example 3, Methyl 7-(3-{[3-(trifluoromethyl)benzoyl]amino}phenyl)pyrazolo[1,5-a]pyrimidine-4(5H)-carboxylate], the IC50 was determined as 163 nM.
Under `CCNC(=O)N1CC=C(c2cccc(NC(=O)c3cccc(C(F)(F)F)c3)c2)n2nccc21` [Example 9, N-Ethyl-7-(3-{[3-(trifluoromethyl)benzoyl]amino}phenyl)pyrazolo[1,5-a]pyrimidine-4(5H)-carboxamide] stands above 10000 nM; under `CC(C)(C)OC(=O)N1CC=C(c2cccc(N(C(=O)OC(C)(C)C)C(=O)c3cccc(C(F)(F)F)c3)c2)n2nccc21` [Example 12, tert-Butyl 7-(3-{(tert-butoxycarbonyl)[3-(trifluoromethyl)benzoyl]amino}phenyl)pyrazolo[1,5-a]pyrimidine-4(5H)-carboxylate 4(5H)-carboxylate], above 10000 nM.
As for `CC(=O)NCCC(=O)N1CC=C(c2cccc(NC(=O)c3cccc(C(F)(F)F)c3)c2)n2nccc21` [Example 19, N-{3-[4-(N-Acetyl-β-alanyl)-4,5-dihydropyrazolo[1,5-a]pyrimidin-7-yl]phenyl}-3-(trifluoromethyl)benzamide], the IC50 came out at 716 nM.
For the compound `CC#CCN1CC=C(c2cccc(NC(=O)c3cccc(C(F)(F)F)c3)c2)n2nccc21` [Example 7, N-[3-(4-But-2-yn-1-yl-4,5-dihydropyrazolo[1,5-a]pyrimidin-7-yl)phenyl]-3-(trifluoromethyl)benzamide], the IC50 was found to be 868 nM.

As usually defined, the IC50 is the concentration needed to halve the response being measured.
